Experimental data: US11667630B2, “Nitrogen-containing 6-membered cyclic compound” (Asahi Kasei Pharma Corporation, priority 2017, dated 2023)

How the values were obtained:
human EP3 receptor = biological target: T1, human EP3 receptor (Homo sapiens, UniProt P43115); assay: Receptor binding test, [3H]PGE2 binding inhibition, EP3; details: [3H]PGE2 1.54 nmol/L, membrane fraction HTS092M, 25°C 60 minutes
T1 construct: purchased Merck Millipore HTS092M
T1 sequence (P43115 1-390): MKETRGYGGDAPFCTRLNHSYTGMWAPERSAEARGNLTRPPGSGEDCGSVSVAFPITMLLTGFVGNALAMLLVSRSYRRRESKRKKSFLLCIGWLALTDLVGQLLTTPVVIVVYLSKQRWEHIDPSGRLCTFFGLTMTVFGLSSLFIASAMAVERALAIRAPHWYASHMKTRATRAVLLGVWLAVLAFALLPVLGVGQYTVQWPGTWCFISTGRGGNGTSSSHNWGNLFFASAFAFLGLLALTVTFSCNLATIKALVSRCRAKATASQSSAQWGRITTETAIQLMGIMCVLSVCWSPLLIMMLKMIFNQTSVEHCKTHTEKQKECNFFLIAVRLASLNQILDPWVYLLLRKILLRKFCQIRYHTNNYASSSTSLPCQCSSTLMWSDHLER
Experimental: (§1) In order to evaluate selectivity to each EP receptor subtype, [^3H]PGE2 binding-inhibition activities of test compounds for cell membranes on which human EP2, human EP3, and human EP4 receptors were stably expressed were measured.
(§2) As the membrane fractions of the prostaglandin E receptors EP2, EP3, and EP4, 10.0 μg protein/tube each of HTS185M, HTS092M, and HTS142M of Merck Millipore were used, respectively. Each membrane fraction was incubated with a reaction mixture (250 μL/tube) containing a test compound and [3H]PGE2 at 25° C. for 60 minutes. […] After the reaction, the membrane fraction was collected on filter paper by using a cell harvester, the filter paper was transferred to a measurement vial, and the measurement was performed on a liquid scintillation counter.
(§3) The nonspecific binding was determined as binding observed in the presence of excess amount (10 μM) of unlabeled PGE2. The measurement of the [3H]PGE2 binding-inhibiting activity of a test compound was performed by adding the test compound at various concentrations. The following buffers were used for the reaction.
Buffer for EP3: 50 mmol/L Tris-HCl buffer containing 10 mmol/L MgCl2, and 1 mmol/L EDTA

human EP4 receptor = human EP4 receptor (Homo sapiens, UniProt P35408); assay: Measurement of EP4 agonist activity (cAMP production); assay type: cell-based; set-up: expressed in transfected cells; host or cells: HEK293; details: cAMP production in HEK293 cells stably expressing human EP4 receptor; average values where measured two or more times
Experimental: In order to investigate EP4 receptor agonist activity of the compounds of the present invention, production of cAMP was measured in HEK293 cells that were made to stably express the human EP4 receptor.
By using Refseq Database, prostaglandin E receptor was searched for. As a result, gene information of human EP4 (NM_000958) receptor was obtained. On the basis of this sequence information, the human EP4 receptor gene was cloned by PCR in a conventional manner using human cDNA as the template, and HEK293 cells that were made to stably express the human EP4 receptor were established. When cryopreserved cells of this strain were thawed and used, cells subcultured three times or more within a certain period of time (about 1 to 2 weeks) by using Dulbecco's Modified Eagle's Medium (Dulbecco's Modified Eagle's Medium may be henceforth abbreviated as DMEM) containing 10% FBS, 50 units each of penicillin and streptomycin were used. The subcultured cells were inoculated in wells of a poly-D-lysine-coated 96-well plate at a density of 2×10^4 to 2.5×10^4 cells/well, and cultured for one day. The medium in the wells was removed by suction, then DMEM (80 μL) was added to each well, and incubation was performed at 37° C. for 15 minutes. […] The reaction was allowed at 37° C. for 30 minutes, then the medium was removed by suction, Assay/Lysis Buffer (100 μL) contained in cAMP Screen Kit (produced by Applied Biosystems) was added to terminate the reaction. Then, the reaction mixture was incubated at 37° C. for 30 minutes to prepare a sample for quantification of cAMP, and the amount of cAMP in the sample was quantified according to the method indicated in cAMP Screen Kit. By non-linear regression of the compound concentration and the amount of cAMP, the concentration of the compound required for increasing cAMP to 50% of the maximum increase (EC50 value) was calculated by using the Kaleida Graph.

human EP2 receptor = biological target: T2, human EP2 receptor (Homo sapiens, UniProt P43116); assay: Receptor binding test, [3H]PGE2 binding inhibition, EP2; details: [3H]PGE2 2.56 nmol/L, membrane fraction HTS185M, 25°C 60 minutes
T2 construct: purchased Merck Millipore HTS185M
Experimental: as §1, §2, §3
Buffer for EP2: 50 mmol/L HEPES-NaOH (pH 7.4) containing 5 mmol/L MgCl2, 1 mmol/L CaCl2), and 0.2% BSA

T2 sequence (P43116 whole entry): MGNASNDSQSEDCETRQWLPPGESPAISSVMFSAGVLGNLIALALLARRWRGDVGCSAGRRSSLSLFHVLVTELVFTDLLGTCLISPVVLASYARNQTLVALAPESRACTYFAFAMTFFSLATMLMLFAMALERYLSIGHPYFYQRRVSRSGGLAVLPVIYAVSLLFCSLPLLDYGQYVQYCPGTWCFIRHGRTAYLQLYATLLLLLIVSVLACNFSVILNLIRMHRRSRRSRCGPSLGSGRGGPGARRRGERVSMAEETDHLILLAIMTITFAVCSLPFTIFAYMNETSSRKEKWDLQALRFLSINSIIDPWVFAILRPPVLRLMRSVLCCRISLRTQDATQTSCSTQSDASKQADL
Sequence of human EP4 receptor (P35408 whole entry): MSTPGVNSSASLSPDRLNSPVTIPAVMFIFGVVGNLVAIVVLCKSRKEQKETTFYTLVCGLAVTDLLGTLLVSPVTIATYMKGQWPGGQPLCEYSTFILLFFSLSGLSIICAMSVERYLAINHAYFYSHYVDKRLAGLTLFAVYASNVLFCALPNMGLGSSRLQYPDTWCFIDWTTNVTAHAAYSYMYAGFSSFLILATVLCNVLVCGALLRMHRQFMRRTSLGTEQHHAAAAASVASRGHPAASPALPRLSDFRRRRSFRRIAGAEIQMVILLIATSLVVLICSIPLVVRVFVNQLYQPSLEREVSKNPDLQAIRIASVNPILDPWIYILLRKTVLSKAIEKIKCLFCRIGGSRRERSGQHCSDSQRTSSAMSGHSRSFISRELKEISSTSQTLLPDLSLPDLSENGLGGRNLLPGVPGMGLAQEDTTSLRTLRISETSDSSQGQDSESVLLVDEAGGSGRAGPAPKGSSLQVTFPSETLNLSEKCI

- IC50 (human EP3 receptor): > 1000 nM
- EC50 (human EP4 receptor): 0.033 nM
- IC50 (human EP2 receptor): > 1000 nM
SMILES: O=C(O)c1ccc(CCN2C(=O)SCCN2CC[C@@H](O)Cc2cccc(C#Cc3ccsc3)c2)s1 [Example 23, (S)-5-(2-(4-(3-Hydroxy-4-(3-(thiophen-3-ylethynyl)phenyl)butyl)-2-oxo-1,3,4-thiadiazinan-3-yl)ethyl)thiophene-2-carboxylic acid]
